Data as given in patent US8093275B2, “Oxazolone and pyrrolidinone-substituted pryidine amides as P2X3 and P2X2/3 antagonists” (Roche Palo Alto LLC, priority 2009, dated 2012).

Assays:
human P2X2/3 receptor = molecular target: T1, human P2X2/3 receptor (Homo sapiens, UniProt P56373+Q9UBL9); test: P2X2/3 FLIPR (Fluorometric Imaging Plate Reader) assay; format: cell-based; details: CHO-K1 cells transfected with human P2X2/3; agonist α,β-meATP 5 μM; FLIPR calcium fluorescence; read-out: pKi P2X2/3 (converted)
T1 construct: expressed in transfected cells; host or cells: CHO-K1
T1 sequence (Q9UBL9 1-471): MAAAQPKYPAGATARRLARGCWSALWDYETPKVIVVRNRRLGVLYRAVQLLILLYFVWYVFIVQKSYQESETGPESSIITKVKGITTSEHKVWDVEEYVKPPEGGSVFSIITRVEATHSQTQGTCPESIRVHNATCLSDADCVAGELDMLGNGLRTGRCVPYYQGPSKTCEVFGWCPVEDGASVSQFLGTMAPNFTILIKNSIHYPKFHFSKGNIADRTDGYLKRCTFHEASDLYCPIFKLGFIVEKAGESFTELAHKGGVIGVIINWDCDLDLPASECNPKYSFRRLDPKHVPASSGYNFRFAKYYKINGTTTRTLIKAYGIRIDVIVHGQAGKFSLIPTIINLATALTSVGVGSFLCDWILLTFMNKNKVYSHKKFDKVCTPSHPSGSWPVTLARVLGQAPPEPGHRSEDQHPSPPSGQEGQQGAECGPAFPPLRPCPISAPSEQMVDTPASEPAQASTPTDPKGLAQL
T1 sequence (P56373 1-397): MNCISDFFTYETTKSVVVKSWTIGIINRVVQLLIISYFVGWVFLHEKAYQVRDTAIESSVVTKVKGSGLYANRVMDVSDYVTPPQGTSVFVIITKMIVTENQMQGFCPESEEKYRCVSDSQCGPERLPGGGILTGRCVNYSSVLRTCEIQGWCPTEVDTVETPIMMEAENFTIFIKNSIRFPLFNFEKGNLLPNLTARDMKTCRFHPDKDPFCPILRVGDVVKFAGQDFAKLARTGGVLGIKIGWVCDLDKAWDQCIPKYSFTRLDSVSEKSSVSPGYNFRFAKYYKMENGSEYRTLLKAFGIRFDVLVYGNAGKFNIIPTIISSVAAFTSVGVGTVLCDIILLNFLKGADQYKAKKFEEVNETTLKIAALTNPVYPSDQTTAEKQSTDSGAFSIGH
Description: (§1) CHO-K1 cells were transfected with cloned rat P2X3 or human P2X2/3 receptor subunits and passaged in flasks. 18-24 hours before the FLIPR experiment, cells were released from their flasks, centrifuged, and resuspended in nutrient medium at 2.5×10^5 cells/ml. The cells were aliquoted into black-walled 96-well plates at a density of 50,000 cells/well and incubated overnight in 5% CO2 at 37° C. On the day of the experiment, cells were washed in FLIPR buffer (calcium- and magnesium-free Hank's balanced salt solution, 10 mM HEPES, 2 mM CaCl2, 2.5 mM probenecid; FB). Each well received 100 μl FB and 100 μl of the fluorescent dye Fluo-3 AM [2 μM final conc.]. After a 1 hour dye loading incubation at 37° C., the cells were washed 4 times with FB, and a final 75 μl/well FB was left in each well.
(§2) Test compounds (dissolved in DMSO at 10 mM and serially diluted with FB) or vehicle were added to each well (25 μl of a 4× solution) and allowed to equilibrate for 20 minutes at room temperature. The plates were then placed in the FLIPR and a baseline fluorescence measurement (excitation at 488 nm and emission at 510-570 nm) was obtained for 10 seconds before a 100 μl/well agonist or vehicle addition. The agonist was a 2× solution of α,β-meATP producing a final concentration of 1 μM (P2X3) or 5 μM (P2X2/3). Fluorescence was measured for an additional 2 minutes at 1 second intervals after agonist addition. A final addition of ionomycin (5 μM, final concentration) was made to each well of the FLIPR test plate to establish cell viability and maximum fluorescence of dye-bound cytosolic calcium. Peak fluorescence in response to the addition of α,β-meATP (in the absence and presence of test compounds) was measured and inhibition curves generated using nonlinear regression. PPADS, a standard P2X antagonist, was used as a positive control.

rat P2X3 receptor = molecular target: T2, rat P2X3 receptor (Rattus norvegicus, UniProt P49654); test: P2X3 FLIPR (Fluorometric Imaging Plate Reader) assay; format: cell-based; details: CHO-K1 cells transfected with rat P2X3; agonist α,β-meATP 1 μM; FLIPR calcium fluorescence; read-out: pKi P2X3 (converted)
T2 construct: expressed in transfected cells; host or cells: CHO-K1
T2 sequence (P49654 1-397): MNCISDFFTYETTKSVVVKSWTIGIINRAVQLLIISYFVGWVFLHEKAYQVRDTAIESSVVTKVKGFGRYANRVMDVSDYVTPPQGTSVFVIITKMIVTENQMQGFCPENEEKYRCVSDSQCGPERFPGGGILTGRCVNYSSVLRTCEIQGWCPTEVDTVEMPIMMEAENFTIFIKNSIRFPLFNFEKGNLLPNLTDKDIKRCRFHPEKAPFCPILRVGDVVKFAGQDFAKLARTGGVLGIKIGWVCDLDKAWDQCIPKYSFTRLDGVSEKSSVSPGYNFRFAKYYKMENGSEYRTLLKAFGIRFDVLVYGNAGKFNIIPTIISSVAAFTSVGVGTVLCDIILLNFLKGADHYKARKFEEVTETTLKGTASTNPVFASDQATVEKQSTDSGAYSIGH
Description: as §1, §2

Cc1ccc(-c2cc(C(=O)NC(C)c3cnccn3)cc(N3C(=O)OC[C@H]3C(C)C)c2)nc1 (stereo partly drawn) [Compound 10, 3-((R)-4-Isopropyl-2-oxo-oxazolidin-3-yl)-5-(5-methyl-pyridin-2-yl)-N-(1-pyrazin-2-yl-ethyl)-benzamide]
Ki (human P2X2/3 receptor): 26.3 nM
Ki (rat P2X3 receptor): 3.55 nM

Cc1ccc(-c2cc(C(=O)NCc3cnc(C)cn3)cc(N3C(=O)OC[C@H]3C(C)C)c2)nc1 [Compound 11, 3-((R)-4-Isopropyl-2-oxo-oxazolidin-3-yl)-N-(5-methyl-pyrazin-2-ylmethyl)-5-(5-methyl-pyridin-2-yl)-benzamide]
Ki (human P2X2/3 receptor): 20.4 nM
Ki (rat P2X3 receptor): 3.98 nM

Cc1ccc(-c2cc(C(=O)NCc3cncnc3)cc(-n3c(=O)oc4ccccc43)c2)nc1 [Compound 12, 3-(5-Methyl-pyridin-2-yl)-5-(2-oxo-benzooxazol-3-yl)-N-pyrimidin-5-ylmethyl-benzamide]
Ki (human P2X2/3 receptor): 141 nM
Ki (rat P2X3 receptor): 6.03 nM

Cc1ccc(-c2cc(C(=O)NCc3ccc(C)nn3)cc(-n3c(=O)oc4ccccc43)c2)nc1 [Compound 13, N-(6-Methyl-pyridazin-3-ylmethyl)-3-(5-methyl-pyridin-2-yl)-5-(2-oxo-benzooxazol-3-yl)-benzamide]
Ki (human P2X2/3 receptor): 21.4 nM
Ki (rat P2X3 receptor): 7.76 nM

Cc1ccc(-c2cc(C(=O)NCc3cccnn3)cc(-n3c(=O)oc4ccccc43)c2)nc1 [Compound 14, 3-(5-Methyl-pyridin-2-yl)-5-(2-oxo-benzooxazol-3-yl)-N-pyridazin-3-ylmethyl-benzamide]
Ki (human P2X2/3 receptor): 263 nM
Ki (rat P2X3 receptor): 8.51 nM

CCC1COC(=O)N1c1cc(C(=O)N[C@@H](C)CO)cc(-c2ccc(C)cn2)c1 (stereo partly drawn) [Compound 17, 3-(4-Ethyl-2-oxo-oxazolidin-3-yl)-N-((S)-2-hydroxy-1-methyl-ethyl)-5-(5-methyl-pyridin-2-yl)-benzamide]
Ki (human P2X2/3 receptor): 4900 nM
Ki (rat P2X3 receptor): 10.5 nM

CCC1COC(=O)N1c1cc(C(=O)NC(C)c2cnccn2)cc(-c2ccc(C)cn2)c1 (stereo not drawn) [Compound 18, 3-(4-Ethyl-2-oxo-oxazolidin-3-yl)-5-(5-methyl-pyridin-2-yl)-N-(1-pyrazin-2-yl-ethyl)-benzamide]
Ki (human P2X2/3 receptor): 339 nM
Ki (rat P2X3 receptor): 7.59 nM

CCC1COC(=O)N1c1cc(C(=O)NCc2cnc(C)cn2)cc(-c2ccc(C)cn2)c1 (stereo not drawn) [Compound 19, 3-(4-Ethyl-2-oxo-oxazolidin-3-yl)-N-(5-methyl-pyrazin-2-ylmethyl)-5-(5-methyl-pyridin-2-yl)-benzamide]
Ki (human P2X2/3 receptor): 66.1 nM
Ki (rat P2X3 receptor): 4.27 nM

Cc1ccc(-c2cc(C(=O)NC(C)c3cnccn3)cc(N3C(=O)OCC3(C)C)c2)nc1 (stereo not drawn) [Compound 20, 3-(4,4-Dimethyl-2-oxo-oxazolidin-3-yl)-5-(5-methyl-pyridin-2-yl)-N-(1-pyrazin-2-yl-ethyl)-benzamide]
Ki (human P2X2/3 receptor): 123 nM
Ki (rat P2X3 receptor): 6.31 nM

Cc1ccc(-c2cc(C(=O)NC(C)c3cnccn3)cc(N3C(=O)CCC3C)c2)nc1 (stereo not drawn) [Compound 27, 3-(2-Methyl-5-oxo-pyrrolidin-1-yl)-5-(5-methyl-pyridin-2-yl)-N-(1-pyrazin-2-yl-ethyl)-benzamide]
Ki (human P2X2/3 receptor): 7760 nM
Ki (rat P2X3 receptor): 38.9 nM

Cc1ccc(-c2cc(C(=O)NCc3cnc(C)cn3)cc(N3C(=O)CCC3C)c2)nc1 (stereo not drawn) [Compound 28, 3-(2-Methyl-5-oxo-pyrrolidin-1-yl)-N-(5-methyl-pyrazin-2-ylmethyl)-5-(5-methyl-pyridin-2-yl)-benzamide]
Ki (human P2X2/3 receptor): 2040 nM
Ki (rat P2X3 receptor): 30.2 nM

Cc1ccc(-c2cc(C(=O)NCc3cnc(C)cn3)cc(N3C(=O)OCC34CC4)c2)nc1 [Compound 29, N-(5-Methyl-pyrazin-2-ylmethyl)-3-(5-methyl-pyridin-2-yl)-5-(5-oxo-6-oxa-4-aza-spiro[2.4]hept-4-yl)-benzamide]
Ki (human P2X2/3 receptor): 129 nM
Ki (rat P2X3 receptor): 4.37 nM

Cc1ccc(-c2cc(C(=O)NCc3cnc(C)cn3)cc(-n3c(=O)[nH]c4cncnc43)c2)nc1 [Compound 30, N-(5-Methyl-pyrazin-2-ylmethyl)-3-(5-methyl-pyridin-2-yl)-5-(8-oxo-7,8-dihydro-purin-9-yl)-benzamide]
Ki (human P2X2/3 receptor): 35.5 nM
Ki (rat P2X3 receptor): 3.16 nM

Cc1ccc(-c2cc(C(=O)NCc3ccc(C)nn3)cc(N3C(=O)OCC3(C)C)c2)nc1 [Compound 31, 3-(4,4-Dimethyl-2-oxo-oxazolidin-3-yl)-N-(6-methyl-pyridazin-3-ylmethyl)-5-(5-methyl-pyridin-2-yl)-benzamide]
Ki (human P2X2/3 receptor): 85.1 nM
Ki (rat P2X3 receptor): 5.62 nM

Cc1ccc(-c2cc(C(=O)NCc3ncc(C)cn3)cc(-n3c(=O)oc4ccccc43)c2)nc1 [Compound 32, 3-(5-Methyl-pyridin-2-yl)-N-(5-methyl-pyrimidin-2-ylmethyl)-5-(2-oxo-benzooxazol-3-yl)-benzamide]
Ki (human P2X2/3 receptor): 24.5 nM
Ki (rat P2X3 receptor): 4.57 nM

Cc1ccc(-c2cc(C(=O)NCc3cnc(C)nc3)cc(-n3c(=O)oc4ccccc43)c2)nc1 [Compound 33, 3-(5-Methyl-pyridin-2-yl)-N-(2-methyl-pyrimidin-5-ylmethyl)-5-(2-oxo-benzooxazol-3-yl)-benzamide]
Ki (human P2X2/3 receptor): 13.8 nM
Ki (rat P2X3 receptor): 6.17 nM

Cc1ccc(-c2cc(C(=O)N[C@@H](C)CO)cc(N3C(=O)OC[C@H]3C(C)C)c2)cc1 [Compound 38, 5-((R)-4-Isopropyl-2-oxo-oxazolidin-3-yl)-4′-methyl-biphenyl-3-carboxylic acid ((S)-2-hydroxy-1-methyl-ethyl)-amide]
Ki (human P2X2/3 receptor): 79.4 nM
Ki (rat P2X3 receptor): 2.19 nM

Cc1ccc(-c2cc(C(=O)NC(C)c3cnccn3)cc(N3C(=O)OC[C@H]3C(C)C)c2)cc1 (stereo partly drawn) [Compound 39, 5-((R)-4-Isopropyl-2-oxo-oxazolidin-3-yl)-4′-methyl-biphenyl-3-carboxylic acid (1-pyrazin-2-yl-ethyl)-amide]
Ki (human P2X2/3 receptor): 38 nM
Ki (rat P2X3 receptor): 9.33 nM

Cc1ccc(-c2cc(C(=O)NCc3cnc(C)cn3)cc(N3C(=O)OC[C@H]3C(C)C)c2)cc1 [Compound 40, 5-((R)-4-Isopropyl-2-oxo-oxazolidin-3-yl)-4′-methyl-biphenyl-3-carboxylic acid (5-methyl-pyrazin-2-ylmethyl)-amide]
Ki (human P2X2/3 receptor): 38 nM
Ki (rat P2X3 receptor): 12.3 nM

Cc1ccc(-c2cc(C(=O)NC3CC3)cc(N3C(=O)OC[C@H]3C(C)C)c2)cc1 [Compound 41, 5-((R)-4-Isopropyl-2-oxo-oxazolidin-3-yl)-4′-methyl-biphenyl-3-carboxylic acid cyclopropylamide]
Ki (human P2X2/3 receptor): 83.2 nM
Ki (rat P2X3 receptor): 3.98 nM

Cc1ccc(-c2cc(C(=O)NC(C)c3cnccn3)cc(N3C(=O)OC[C@@H]3C(C)C)c2)cc1 (stereo partly drawn) [Compound 45, 5-((S)-4-Isopropyl-2-oxo-oxazolidin-3-yl)-4′-methyl-biphenyl-3-carboxylic acid (1-pyrazin-2-yl-ethyl)-amide]
Ki (human P2X2/3 receptor): 7590 nM
Ki (rat P2X3 receptor): 263 nM
